Test systems include 786-0; A498; HCT-15; HOP-62; HT-29; K562; LOX IMVI; MOLT-4; NCI-H23; NCI-H460; NCI-H522; OVCAR-5; RPMI-8226; SK-MEL-28; SK-MEL-2; SNB-75; U-251; UACC-257; Hs-578T; NCI/ADR-RES.
Common to all, as to test: inhibition of tumour cell growth, NCI panel, 48 h

The text below walks through data of ChEMBL document CHEMBL1201862, “PubChem BioAssay data set” (2004).

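Five compound concentrations were applied to cells in 96-well plates for 48 hours; endpoints were derived by simple linear interpolation of the resulting dose-response curve. GI50 = concentration required for 50% inhibition of growth.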 The source made the active and inactive calls. Rule as the data show it: active = GI50 up to about 1.1 µM and inactive = higher. Where only a bound is given, the exact number is not on record here.

In the case of `CN1CC[C@]2(C)c3ccc(O)cc3CC3CCCC1C32C` (stereo partly specified), the GI50 in the assay on 786-0 was > 100 µM (inactive); in the assay on A498, > 100 µM (inactive); with HCT-15, above 100 µM; with HOP-62, > 100 µM (inactive); with HT-29, > 100 µM (inactive); in the assay with K562 it was > 100 µM (inactive). Further, the GI50 with LOX IMVI, in the assay on MOLT-4, in the assay on NCI-H23, in the assay with NCI-H460, in the assay on NCI-H522 and in the assay with OVCAR-5 was > 100 µM (inactive) each time. Also, the GI50 in the assay with RPMI-8226 was > 100 µM (inactive); with SK-MEL-28, > 100 µM (inactive); in the assay with SK-MEL-2 it was > 100 µM (inactive); with SNB-75, 80.9 µM (inactive); with U-251 it was > 100 µM (inactive); with UACC-257 it was > 100 µM (inactive).
Take `CCSC(SCC)c1cc2c(cc1Br)OCO2`: the GI50 with 786-0 was 33 µM (inactive); in the assay on A498, 25.8 µM (inactive); in the assay with HCT-15, 9.64 µM; in the assay with HOP-62 it was 60.3 µM (inactive); with HT-29, 16.8 µM (inactive); in the assay on K562, 3.77 µM (inactive). Also, the GI50 in the assay with LOX IMVI was 16.2 µM (inactive); in the assay with MOLT-4, 11.9 µM (inactive); in the assay on NCI-H23, 26.7 µM (inactive); in the assay on NCI-H460 it was 18.5 µM (inactive); with NCI-H522 it was 24 µM (inactive); in the assay on OVCAR-5, 27.2 µM (inactive). Also, the GI50 in the assay on RPMI-8226 was 19.4 µM (inactive); with SK-MEL-28 it was 33.2 µM (inactive); in the assay on SK-MEL-2 it was 18.9 µM (inactive); with SNB-75, 18.8 µM (inactive); in the assay on U-251, 17 µM (inactive).
For `CC(C)C[C@H](NC(=O)[C@@H](N)Cc1cccc2ccccc12)B(O)O`, the GI50 is < 0.0216 µM (active) with 786-0; < 0.0189 µM (active) in the assay with A498; 0.033 µM in the assay on HCT-15; 0.0575 µM (active) in the assay with HOP-62; < 0.0178 µM (active) with HT-29; < 0.0179 µM (active) in the assay with LOX IMVI. The GI50 was < 0.0177 µM (active) in the assay on MOLT-4; 0.0249 µM (active) in the assay on NCI-H23; 0.0695 µM (active) in the assay with NCI-H460; 0.187 µM (active) in the assay on NCI-H522; 0.0272 µM (active) in the assay with OVCAR-5; < 0.0164 µM (active) in the assay on RPMI-8226. The GI50 is < 0.0149 µM (active) in the assay with SK-MEL-28; 0.0399 µM (active) in the assay on SK-MEL-2; 0.0259 µM (active) in the assay on SNB-75; 0.0416 µM (active) with U-251; 0.0311 µM (active) with UACC-257.
On to `CCCCCCC(=O)C/C(CCC(=O)N(Cc1ccccc1)Cc1ccccc1)=N\NC(N)=O`, for which the GI50 is > 100 µM (inactive) with 786-0; > 100 µM (inactive) with A498; above 100 µM with HCT-15; > 100 µM (inactive) in the assay on HOP-62; > 100 µM (inactive) with HT-29; > 100 µM (inactive) in the assay with K562. Moreover, the GI50 in the assay with LOX IMVI, in the assay on MOLT-4, with NCI-H23, in the assay with NCI-H460, in the assay on NCI-H522 and with OVCAR-5 was > 100 µM (inactive) each time. Also, the GI50 in the assay with RPMI-8226, with SK-MEL-28, with SK-MEL-2, with SNB-75, in the assay on U-251 and in the assay on UACC-257 was > 100 µM (inactive) in each case.
`COc1ccc2cc(CNCCCCCCNC(=O)Nc3cccc4ccccc34)ccc2c1`: the GI50 in the assay with 786-0 is > 100 µM (inactive); with A498, > 100 µM (inactive); in the assay with HCT-15 it was above 100 µM; in the assay on HOP-62, > 100 µM (inactive); with HT-29 it was > 100 µM (inactive); in the assay on Hs-578T it was > 100 µM (inactive). Moreover, the GI50 in the assay with K562, with LOX IMVI, in the assay on MOLT-4, in the assay on NCI-H23, in the assay with NCI-H460 and in the assay on NCI-H522 was > 100 µM (inactive) throughout. The GI50 in the assay on OVCAR-5, in the assay with RPMI-8226, with SK-MEL-28, with SK-MEL-2, in the assay on SNB-75 and in the assay on U-251 was > 100 µM (inactive) each time. The GI50 in the assay with UACC-257 was > 100 µM (inactive).
For the compound `O=c1[nH]c(=O)c2ncn(-c3ccc([N+](=O)[O-])cn3)c2[nH]1`, the GI50 was > 100 µM (inactive) with 786-0; > 100 µM (inactive) in the assay on A498; above 100 µM in the assay with HCT-15; > 100 µM (inactive) with HOP-62; > 100 µM (inactive) in the assay on HT-29; > 100 µM (inactive) in the assay on K562. Moreover, the GI50 in the assay with LOX IMVI, in the assay with MOLT-4, in the assay on NCI-H23, with NCI-H460, with NCI/ADR-RES and in the assay with OVCAR-5 was > 100 µM (inactive) throughout. For the same compound, the GI50 in the assay on RPMI-8226, with SK-MEL-28, in the assay with SK-MEL-2, with SNB-75, with U-251 and in the assay with UACC-257 was > 100 µM (inactive) each time.
Consider `COS(=O)c1cc(Cl)cc(Cl)c1OC(=O)CSSCC(=O)Oc1c(Cl)cc(Cl)cc1S(=O)OC` (stereo unspecified), for which the GI50 with 786-0 was 22.4 µM (inactive); in the assay on A498, 15.5 µM (inactive); in the assay on HCT-15, 14.4 µM; with HOP-62 it was > 10 µM (inactive); in the assay with HT-29, 30.4 µM (inactive); with K562 it was 20.4 µM (inactive). For the same compound, the GI50 in the assay with LOX IMVI was 16 µM (inactive); in the assay on MOLT-4, 17.1 µM (inactive); with NCI-H23, 11.2 µM (inactive); with NCI-H460 it was 8.69 µM (inactive); in the assay on NCI-H522, 14.2 µM (inactive); with OVCAR-5 it was 16.7 µM (inactive). Further, the GI50 in the assay on RPMI-8226 is 12.5 µM (inactive); with SK-MEL-28, 12.4 µM (inactive); with SK-MEL-2 it was 17.3 µM (inactive); in the assay with SNB-75 it was 24.7 µM (inactive); in the assay with U-251 it was 5.92 µM (inactive); with UACC-257, 23.2 µM (inactive).
With `CC(C)CC(NC(=O)C(CI)Cc1ccccc1)C(=O)Nc1ccccc1` (stereo unspecified), the GI50 in the assay with 786-0 was > 100 µM (inactive); with A498, > 100 µM (inactive); in the assay on HCT-15, above 100 µM; in the assay on K562, > 100 µM (inactive); in the assay with LOX IMVI, > 100 µM (inactive); in the assay with MOLT-4, > 100 µM (inactive). Further, the GI50 in the assay with NCI-H23, in the assay with NCI-H460, with NCI-H522, with NCI/ADR-RES, with OVCAR-5 and in the assay with RPMI-8226 was > 100 µM (inactive) in each case. For the same compound, the GI50 with SK-MEL-28, with SK-MEL-2, with SNB-75, in the assay on U-251 and in the assay on UACC-257 was > 100 µM (inactive) each time.
Regarding `COc1cc(O)c2c(c1)C(=O)c1cc3c(c(O)c1C2=O)C(OC1OC(C)C(OC)C(O)C1OC)C(OC)C(C)(O)C3=O` (stereo unspecified), the GI50 is 5.28 µM (inactive) with 786-0; 5.53 µM (inactive) in the assay on A498; 3.15 µM in the assay on HCT-15; 5.46 µM (inactive) in the assay on HOP-62; 3.37 µM (inactive) in the assay on HT-29; 8.47 µM (inactive) with Hs-578T. For the same compound, the GI50 in the assay with K562 was 3.58 µM (inactive); with LOX IMVI, 2.7 µM (inactive); in the assay on MOLT-4, 3.14 µM (inactive); in the assay with NCI-H23, 5.86 µM (inactive); in the assay on NCI-H460 it was 2.72 µM (inactive); with NCI-H522 it was 1.68 µM (inactive). In addition, the GI50 was 16.1 µM (inactive) with OVCAR-5; 1.29 µM (inactive) in the assay with RPMI-8226; 7.01 µM (inactive) with SK-MEL-28; 8.11 µM (inactive) in the assay with SK-MEL-2; 4.15 µM (inactive) in the assay with SNB-75; 5.33 µM (inactive) with U-251. The GI50 in the assay with UACC-257 was 4.28 µM (inactive).
With `CC1CCCc2c(CC3CC(=O)NC(=O)C3)nc(N)nc21` (stereo unspecified), the GI50 in the assay with 786-0 was > 100 µM (inactive); with A498, > 100 µM (inactive); in the assay with HCT-15, above 100 µM; in the assay on HOP-62, > 100 µM (inactive); in the assay on HT-29 it was > 100 µM (inactive); with K562, > 100 µM (inactive). For the same compound, the GI50 with LOX IMVI, in the assay on MOLT-4, in the assay with NCI-H23, with NCI/ADR-RES, in the assay with OVCAR-5 and in the assay with RPMI-8226 was > 100 µM (inactive) each time. For the same compound, the GI50 is > 100 µM (inactive) in the assay on SK-MEL-28; > 100 µM (inactive) in the assay on SK-MEL-2; 95.7 µM (inactive) in the assay on SNB-75; > 100 µM (inactive) with U-251; > 100 µM (inactive) in the assay on UACC-257.
As to `COc1cc(C2SCCCCCCCCCCSC(c3ccc(O)c(OC)c3)SCCCCCCCCCCS2)ccc1O` (stereo unspecified), the GI50 was > 100 µM (inactive) with 786-0; > 100 µM (inactive) in the assay on A498; above 100 µM in the assay on HCT-15; > 100 µM (inactive) with HOP-62; > 100 µM (inactive) in the assay with HT-29; > 100 µM (inactive) in the assay on K562. Further, the GI50 is > 100 µM (inactive) in the assay on LOX IMVI; 26.3 µM (inactive) in the assay on MOLT-4; > 100 µM (inactive) in the assay on NCI-H23; > 100 µM (inactive) in the assay with NCI-H522; > 100 µM (inactive) with NCI/ADR-RES; > 100 µM (inactive) in the assay on OVCAR-5. The GI50 in the assay on RPMI-8226 is > 100 µM (inactive); with SK-MEL-28, > 100 µM (inactive); in the assay on SK-MEL-2, > 100 µM (inactive); with SNB-75, 52.6 µM (inactive); with U-251, > 100 µM (inactive); with UACC-257, > 100 µM (inactive).
